# Experimental data: paper PMC9448371, “Synthesis and biological activity evaluation of 3-(hetero) arylideneindolin-2-ones as potential c-Src inhibitors” (Journal of Enzyme Inhibition and Medicinal Chemistry, 2022)
# Entries after “also recorded” stand apart in the source; their conditions may differ.
# How the values were obtained:
# [1] = system: human MCF7 breast cancer cell line; assay: Cytotoxicity, growth inhibition MTS assay; assay type: cell-based; conditions: mean ± SD, triplicate; for MCF-7 (IC50, μM): 72 h exposure; for IC50: Homo sapiens, MCF7, 72 h exposure, read-out: MCF-7 (IC50)
# Experimental: Cytotoxicity experiments were carried out using the human MCF7 breast cancer cell line (ATCC HTB-22). […] Compound potency was determined by a growth inhibition assay (CellTiter 96® Aqueous One Solution Cell Proliferation Assay MTS, Promega). 24 h after seeding in a 96-well plate, cells were exposed to the compounds (concentration range 1–100 µM) and 72 h later, 20 µL of 3–(4,5-dimethylthiazol-2-yl)-5–(3-carboxymethoxyphenyl)-2–(4-sulfophenyl)-2H-tetrazolium salt (MTS) was added to each well. […] Experiments were performed in triplicate.
# c-Src = biological target: T1, c-Src (Homo sapiens, UniProt P12931); assay: c-Src kinase inhibition assay (ADP-Glo Kinase Assay); assay type: biochemical; conditions: Table 3; for inhibition at 100 µM: read-out: % Inhibition 100 µM; for IC50: read-out: ID50 (the source's name)
# T1 construct: His6 (N); purchased Merck-Millipore 14–326
# T1 sequence (P12931 whole entry): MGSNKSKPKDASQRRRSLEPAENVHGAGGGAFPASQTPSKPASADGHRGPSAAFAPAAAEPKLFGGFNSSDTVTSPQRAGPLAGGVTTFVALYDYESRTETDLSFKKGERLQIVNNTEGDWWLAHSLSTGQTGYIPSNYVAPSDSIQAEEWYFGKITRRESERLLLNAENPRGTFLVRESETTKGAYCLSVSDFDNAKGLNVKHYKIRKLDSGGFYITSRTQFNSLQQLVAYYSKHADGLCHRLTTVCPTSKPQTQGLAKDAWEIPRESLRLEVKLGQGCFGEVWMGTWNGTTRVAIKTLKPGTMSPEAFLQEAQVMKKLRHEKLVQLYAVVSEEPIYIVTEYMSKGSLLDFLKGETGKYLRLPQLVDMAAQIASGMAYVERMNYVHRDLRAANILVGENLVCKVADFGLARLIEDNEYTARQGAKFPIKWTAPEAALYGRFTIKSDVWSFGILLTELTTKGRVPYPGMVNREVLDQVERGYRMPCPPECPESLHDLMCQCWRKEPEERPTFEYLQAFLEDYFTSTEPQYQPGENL
# Experimental: To avoid peptide adsorption to the plastic surface, protein low-binding tubes were used. ADP-Glo Kinase Assay (Promega) was then used to detect kinase activity accordingly with manufacturer’s instruction with minor modifications. In details, reactions were transferred to white 384 well-plates and stopped by adding 10 µL of ADP-Glo Reagent (Promega) for 50 min at rt. 20 μL of Detection Reagent (Promega) was then added for 30 min and the reaction read using GloMax Discover microplate reader (Promega). Data were plotted using GraphPad Prism 5.0. […] Compounds tested were assumed to act as fully ATP-competitive inhibitors. Therefore, Ki values were calculated accordingly to Equation (2).
# [2] = 10 µM compound, tested as E/Z mixtures
# [3] = 100 µM compound, tested as E/Z mixtures
# [4] = calculated from ID50 assuming fully ATP-competitive inhibition
melting point,inhibition at 10 µM (c-Src; [2]),inhibition at 100 µM (c-Src; [3]),IC50 (c-Src; 100 μM ATP),Ki (c-Src; [4]),"% Inhibition 100 µM (c-Src; 100 µM compound, tested as E/Z mixtures, 100 µM)",ID50 (c-Src; 100 μM ATP),Ki (ATP competitive) (c-Src; [4]),SMILES,"MCF-7 (IC50, μM) [1]",IC50 [1],"% Inhibition 10 µM (c-Src; 10 µM compound, tested as E/Z mixtures, listed as C00033, 10 µM)"
,,,,,,,,"Cc1nc(Nc2ncc(C(=O)Nc3c(C)cccc3Cl)s2)cc(N2CCN(CCO)CC2)n1 [Dasatinib, reference compound]",,27 ± 1 µM,
262 to 263 °C (dec.),53.9 ± 26.6%,76.8 ± 9.22%,> 10 µM,,,,,"O=C1Nc2cc(Cl)ccc2C1=Cc1cnc(Br)s1 [Compound 49, 3-((2-bromothiazol-5-yl)methylene)-6-chloroindolin-2-one]",potency comparable to Dasatinib; also recorded: cytotoxicity comparable to that of the reference compound Dasatinib,33 ± 2 µM,
238 to 239 °C,41.2 ± 1.12%,96.1 ± 1.42%,9.14 µM,6.17 µM,,,,"O=C1Nc2cc(Cl)ccc2C1=Cc1ccc2[nH]ccc2c1 [Compound 50, 3-((1H-indol-5-yl)methylene)-6-chloroindolin-2-one]",,68 ± 2 µM,
158 to 159 °C,71.7 ± 2.27%,80.8 ± 6.47%,3.24 µM,,good activity,,,"CCOC(=O)COc1ccc(C=C2C(=O)Nc3cc(Cl)ccc32)cc1 [Compound 43, Ethyl 2–(4-((6-chloro-2-oxoindolin-3-ylidene)methyl)phenoxy) acetate]",,85 ± 2 µM,
322 to 323 °C (dec.),53 ± 18.1%,69.94 ± 0.19%,2.43 µM,1.64 µM,,single-digit micromolar,single-digit micromolar,"O=C1Nc2cc(Cl)ccc2C1=Cc1ccc([N+](=O)[O-])cc1 [Compound 33, 6-chloro-3–(4-nitrobenzylidene)indolin-2-one]",,> 100 µM,

SMILES,melting point,inhibition at 10 µM (c-Src; [2]),inhibition at 100 µM (c-Src; [3]),IC50 (c-Src; 100 μM ATP),Ki (c-Src; [4]),"% Inhibition 100 µM (c-Src; 100 µM compound, tested as E/Z mixtures, 100 µM)",ID50 (c-Src; 100 μM ATP),Ki (ATP competitive) (c-Src; [4]),"MCF-7 (IC50, μM) [1]",IC50 [1],"% Inhibition 10 µM (c-Src; 10 µM compound, tested as E/Z mixtures, listed as C00033, 10 µM)"
"CN(C)c1ccc(C=C2C(=O)Nc3cc(Cl)ccc32)cc1 [Compound 34, 6-chloro-3–(4-(dimethylamino)benzylidene)indolin-2-one]",253 to 254 °C,85%,75.7 ± 7.63%,0.71 µM,0.48 µM,,,,did not show any cytotoxic activity,> 100 µM,85.35 ± 6.98%
